Source: patent US9499530B2 (HANGZHOU MINSHENG INSTITUTES FOR PHARMA RESEARCH, priority 2011, dated 2016)

How the values were obtained:
[1] = biological target: EGFR (Epidermal Growth Factor Receptor 1) (Homo sapiens, UniProt P00533); assay: ELISA protein tyrosine kinase inhibition, EGFR; assay type: biochemical; details: ELISA, Poly(Glu, Tyr) 4:1 substrate, ATP 5 μM, test samples at 10-5 mol/l; read-out: EGFR inhibitory activity (IC50 class)
From the text: (§1) Determining the Effect of Test Samples at a Concentration of 10-5 Mol/l on the Activity of the Substrate Phosphoryation Catalyzed by EGFR (Epidermal Growth Factor Receptor 1), ErbB-2 (Epidermal Growth Factor Receptor 2), ErbB-4, KDR (Vascular Endothelial Growth Factor Receptor 2) Protein Tyrosine Kinases at Molecular Level
(§2) Enzyme-Linked Immunosorbent Assay (ELISA)
(§3) Main instrument: wavelength-tunable microplate reader (VERSAmax).
(§4) Main reagents: kinase reaction substrate Poly(Glu, Tyr) 4:1 from Sigma; anti-phosphotyrosine monoclonal antibody PY99 from Santa Cruz; horseradish peroxidase-labeled goat anti-mouse IgG from Calbiochem; ATP, DTT, OPD from Amresco, and ELISA plate from Corning.
(§5) Poly(Glu, Tyr)4:1 as an enzyme substrate was diluted by potassium ion-free PBS into 20 μg/ml, and an ELISA plate was coated and subjected to reaction for 12-16 h at 37° C. After the liquid in wells was removed, the plate was washed three time by T-PBS, 5 min for each time. The ELISA plate was then dried in an oven at 37° C. The coated wells were added with the test samples: the test samples were prepared for a stock solution with a concentration of 1×10^−2M in DMSO. The aliquot solution was stored at −20° C., and diluted to the desired concentration with reaction buffer before use. The resulting solution was added into the wells so that the final concentration of 10-5 mol/l in 100 μL reaction system can be obtained. At the same time, a positive control well was set up and a positive control compound Su11248 was added. ATP and test tyrosine kinases were added: ATP solution diluted with reaction buffer was added (the final concentration of ATP is 5 μM). Finally, the test tyrosine kinases solution diluted with reaction buffer was added. The total volume of the reaction system was […]. Meanwhile, a negative control well and a control well without enzyme were set up. The reaction system was placed in a wet box, and shaked for 1 hour at 37° C., shielding from light. After the reaction was complete, the plate was washed by T-PBS three times. Antibody PY99 was added at 100 μL/well; and the plate was shaked for 30 min at 37° C. After the reaction was complete, the plate was washed with T-PBS three times. Horseradish peroxidase-labeled goat anti-mouse IgG was added at 100 μL/well, and the plate was shaked for 30 min at 37° C. The plate was washed with T-PBS three times. OPD developing liquid was added at 100 μL/well, and reacted for 1-10 min at room temperature, shielding from light. 50 μL of 2 M H2SO4 was added to stop the reaction. A492 value was determined using wavelength-tunable microplate reader. The inhibition ratio of the samples can be calculated by the following equation: […]

[2] = biological target: ErbB-2 (Epidermal Growth Factor Receptor 2) (Homo sapiens, UniProt P04626); assay: ELISA protein tyrosine kinase inhibition, ErbB-2; assay type: biochemical; details: Poly(Glu, Tyr) 4:1 substrate, ATP 5 μM, test samples at 10-5 mol/l, read-out: ErbB2 inhibitory activity (IC50 class)
Chain of ErbB-2 (Epidermal Growth Factor Receptor 2) (P04626 23-1255): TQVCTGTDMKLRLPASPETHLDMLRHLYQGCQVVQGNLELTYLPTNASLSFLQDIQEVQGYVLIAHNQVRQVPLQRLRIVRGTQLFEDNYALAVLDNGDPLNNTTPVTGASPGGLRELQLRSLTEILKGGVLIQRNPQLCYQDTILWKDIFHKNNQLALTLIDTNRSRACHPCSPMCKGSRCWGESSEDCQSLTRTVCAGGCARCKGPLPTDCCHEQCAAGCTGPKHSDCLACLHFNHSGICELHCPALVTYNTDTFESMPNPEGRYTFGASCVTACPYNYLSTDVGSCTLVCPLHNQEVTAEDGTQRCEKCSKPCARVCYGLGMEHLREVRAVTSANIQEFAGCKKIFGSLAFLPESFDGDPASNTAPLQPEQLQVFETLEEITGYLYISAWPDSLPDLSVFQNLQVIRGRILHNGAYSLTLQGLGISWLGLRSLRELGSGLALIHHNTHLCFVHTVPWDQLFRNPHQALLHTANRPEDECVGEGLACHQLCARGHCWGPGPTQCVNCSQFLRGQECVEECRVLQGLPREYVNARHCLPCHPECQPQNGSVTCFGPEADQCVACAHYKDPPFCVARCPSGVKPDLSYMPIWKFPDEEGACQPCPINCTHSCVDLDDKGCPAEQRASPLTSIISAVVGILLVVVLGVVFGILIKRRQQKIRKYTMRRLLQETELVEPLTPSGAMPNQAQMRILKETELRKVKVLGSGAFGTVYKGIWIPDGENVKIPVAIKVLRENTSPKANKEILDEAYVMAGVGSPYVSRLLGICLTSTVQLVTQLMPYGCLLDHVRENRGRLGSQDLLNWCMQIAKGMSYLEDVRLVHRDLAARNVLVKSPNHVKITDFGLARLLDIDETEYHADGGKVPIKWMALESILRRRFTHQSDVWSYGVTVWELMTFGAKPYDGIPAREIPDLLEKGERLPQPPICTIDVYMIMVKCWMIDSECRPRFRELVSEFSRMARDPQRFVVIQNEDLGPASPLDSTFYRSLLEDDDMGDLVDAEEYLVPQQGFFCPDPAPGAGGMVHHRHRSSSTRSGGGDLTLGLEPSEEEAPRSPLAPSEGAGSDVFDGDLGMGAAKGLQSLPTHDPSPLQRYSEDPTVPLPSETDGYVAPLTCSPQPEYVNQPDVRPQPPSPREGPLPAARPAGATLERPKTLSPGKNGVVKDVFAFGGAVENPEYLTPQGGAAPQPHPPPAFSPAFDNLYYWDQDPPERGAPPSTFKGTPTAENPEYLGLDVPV
From the text: as §1, §2, §3, §4, §5

Chain of EGFR (Epidermal Growth Factor Receptor 1) (P00533 25-1210): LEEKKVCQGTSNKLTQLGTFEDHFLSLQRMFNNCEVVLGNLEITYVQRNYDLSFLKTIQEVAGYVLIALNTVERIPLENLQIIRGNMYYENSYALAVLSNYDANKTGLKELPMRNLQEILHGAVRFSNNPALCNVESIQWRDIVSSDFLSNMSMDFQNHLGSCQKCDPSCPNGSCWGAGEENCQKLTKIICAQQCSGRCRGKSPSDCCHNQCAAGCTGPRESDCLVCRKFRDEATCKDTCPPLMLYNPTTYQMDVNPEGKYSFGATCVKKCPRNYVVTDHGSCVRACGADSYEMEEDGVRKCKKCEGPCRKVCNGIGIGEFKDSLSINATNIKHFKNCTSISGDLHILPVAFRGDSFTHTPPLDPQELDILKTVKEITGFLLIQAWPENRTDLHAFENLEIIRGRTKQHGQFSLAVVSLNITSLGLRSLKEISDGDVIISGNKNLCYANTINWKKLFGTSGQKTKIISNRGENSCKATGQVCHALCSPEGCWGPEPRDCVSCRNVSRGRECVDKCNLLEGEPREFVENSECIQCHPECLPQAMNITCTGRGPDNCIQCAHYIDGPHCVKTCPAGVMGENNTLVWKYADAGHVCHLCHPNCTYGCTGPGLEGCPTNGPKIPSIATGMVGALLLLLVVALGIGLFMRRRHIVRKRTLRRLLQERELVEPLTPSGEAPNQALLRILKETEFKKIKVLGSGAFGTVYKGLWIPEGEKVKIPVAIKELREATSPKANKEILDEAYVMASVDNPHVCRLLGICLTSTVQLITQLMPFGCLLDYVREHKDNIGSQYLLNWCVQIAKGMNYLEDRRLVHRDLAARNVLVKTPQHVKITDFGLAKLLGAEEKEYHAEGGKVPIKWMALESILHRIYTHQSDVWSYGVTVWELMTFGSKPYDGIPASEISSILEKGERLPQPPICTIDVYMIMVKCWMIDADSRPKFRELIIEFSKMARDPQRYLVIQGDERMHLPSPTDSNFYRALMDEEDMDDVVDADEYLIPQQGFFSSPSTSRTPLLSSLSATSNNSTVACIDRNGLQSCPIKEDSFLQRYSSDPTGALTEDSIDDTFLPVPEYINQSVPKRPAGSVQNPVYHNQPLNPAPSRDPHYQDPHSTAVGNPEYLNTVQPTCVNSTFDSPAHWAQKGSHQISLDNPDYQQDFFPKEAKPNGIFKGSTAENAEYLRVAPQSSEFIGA

IC50 [1] [µM] | IC50 [2] [µM] | SMILES
< 10 | < 10 | COCCCCNCc1ccc(-c2ccc3ncnc(Nc4ccc(OCc5cccc(F)c5)c(Cl)c4)c3c2)o1 [MS10·dimethanesulfonate, N-(3-chloro-4-((3-fluorobenzyl)oxy)phenyl)-6-(5-(((4-methoxybutyl)amino)methyl)-2-furyl)-4-quinazolinamine]
< 10 | > 10 | CCCCCCNCc1ccc(-c2ccc3ncnc(Nc4ccc(OCc5cccc(F)c5)c(Cl)c4)c3c2)o1 [MS 2, N-(3-chloro-4-((3-fluorobenzyl)oxy)phenyl)-6-(5-((n-hexylamino)methyl)-2-furyl)-4-quinazolinamine]
< 10 | < 10 | CCNCc1ccc(-c2ccc3ncnc(Nc4ccc(OCc5cccc(F)c5)c(Cl)c4)c3c2)o1 [MS 3, N-(3-chloro-4-((3-fluorobenzyl)oxy)phenyl)-6-(5-((ethylamino)methyl)-2-furyl)-4-quinazolinamine]
< 10 | < 10 | CCN(CC)Cc1ccc(-c2ccc3ncnc(Nc4ccc(OCc5cccc(F)c5)c(Cl)c4)c3c2)o1 [MS 4]
< 10 | > 10 | Fc1cccc(COc2ccc(Nc3ncnc4ccc(-c5ccc(CNCc6cccc(Cl)c6)o5)cc34)cc2Cl)c1 [MS 11, N-(3-chloro-4-((3-fluorobenzyl)oxy)phenyl)-6-(5-(((3-chlorobenzyl)amino)methyl)-2-furyl)-4-quinazolinamine]
< 10 | < 10 | O=[N+]([O-])c1ccc(CCNCc2ccc(-c3ccc4ncnc(Nc5ccc(OCc6cccc(F)c6)c(Cl)c5)c4c3)o2)cc1 [MS 12, N-(3-chloro-4-((3-fluorobenzyl)oxy)phenyl)-6-(5-(((2-(4-nitrophenyl)ethyl)amino)methyl)-2-furyl)-4-quinazolinamine]
< 10 | < 10 | Oc1ccc(CCNCc2ccc(-c3ccc4ncnc(Nc5ccc(OCc6cccc(F)c6)c(Cl)c5)c4c3)o2)cc1 [MS 13, N-(3-chloro-4-((3-fluorobenzyl)oxy)phenyl)-6-(5-(((2-(4-hydroxyphenyl)ethyl)amino)methyl)-2-furyl)-4-quinazolinamine]
< 10 | < 10 | COc1cc(CCNCc2ccc(-c3ccc4ncnc(Nc5ccc(OCc6cccc(F)c6)c(Cl)c5)c4c3)o2)cc(OC)c1 [MS 14]
< 10 | < 10 | Oc1cc(F)cc(CCNCc2ccc(-c3ccc4ncnc(Nc5ccc(OCc6cccc(F)c6)c(Cl)c5)c4c3)o2)c1 [MS 15, N-(3-chloro-4-((3-fluorobenzyl)oxy)phenyl)-6-(5-(((2-(3-hydroxy-5-fluorophenyl)ethyl)amino)methyl)-2-furyl)-4-quinazolinamine]
< 10 | > 10 | Fc1cc(Cl)cc(CCNCc2ccc(-c3ccc4ncnc(Nc5ccc(OCc6cccc(F)c6)c(Cl)c5)c4c3)o2)c1 [MS 16, N-(3-chloro-4-((3-fluorobenzyl)oxy)phenyl)-6-(5-(((2-(3-chloro-5-fluorophenyl)ethyl)amino)methyl)-2-furyl)-4-quinazolinamine]
< 10 | < 10 | OCCCCC(O)CNCc1ccc(-c2ccc3ncnc(Nc4ccc(OCc5cccc(F)c5)c(Cl)c4)c3c2)o1 (centres unmarked) [MS 17, N-(3-chloro-4-((3-fluorobenzyl)oxy)phenyl)-6-(5-(((2,6-dihydroxyhexyl)amino)methyl)-2-furyl)-4-quinazolinamine]
< 10 | < 10 | Fc1cccc(COc2ccc(Nc3ncnc4ccc(-c5ccc(CNOCc6ccccc6)o5)cc34)cc2Cl)c1 [MS 19, N-(3-chloro-4-((3-fluorobenzyl)oxy)phenyl)-6-(5-(((benzyloxy)amino)methyl)-2-furyl)-4-quinazolinamine]
< 10 | < 10 | NC1CCCC(NCc2ccc(-c3ccc4ncnc(Nc5ccc(OCc6cccc(F)c6)c(Cl)c5)c4c3)o2)C1 (centres unmarked) [MS 21, N-(3-chloro-4-((3-fluorobenzyl)oxy)phenyl)-6-(5-(((3-aminocyclohexyl)amino)methyl)-2-furyl)-4-quinazolinamine]
< 10 | < 10 | O=C(O)CNCc1ccc(-c2ccc3ncnc(Nc4ccc(OCc5cccc(F)c5)c(Cl)c4)c3c2)o1 [MS 22, N-(3-chloro-4-((3-fluorobenzyl)oxy)phenyl)-6-(5-(((carboxymethyl)amino)methyl)-2-furyl)-4-quinazolinamine]
< 10 | < 10 | O=C(O)C(Cc1ccccc1)NCc1ccc(-c2ccc3ncnc(Nc4ccc(OCc5cccc(F)c5)c(Cl)c4)c3c2)o1 (centres unmarked) [MS 24, N-(3-chloro-4-((3-fluorobenzyl)oxy)phenyl)-6-(5-((((1-carboxy-2-phenyl)ethyl)amino)methyl)-2-furyl)-4-quinazolinamine]
< 10 | < 10 | O=C(O)C(CO)NCc1ccc(-c2ccc3ncnc(Nc4ccc(OCc5cccc(F)c5)c(Cl)c4)c3c2)o1 (centres unmarked) [MS 28, N-(3-chloro-4-((3-fluorobenzyl)oxy)phenyl)-6-(5-((((1-carboxy-2-hydroxy)ethyl)amino)methyl)-2-furyl)-4-quinazolinamine]
< 10 | < 10 | O=C(O)C(CS)NCc1ccc(-c2ccc3ncnc(Nc4ccc(OCc5cccc(F)c5)c(Cl)c4)c3c2)o1 (centres unmarked) [MS 29]
< 10 | < 10 | NC(=O)CC(NCc1ccc(-c2ccc3ncnc(Nc4ccc(OCc5cccc(F)c5)c(Cl)c4)c3c2)o1)C(=O)O (centres unmarked) [MS 30, N-(3-chloro-4-((3-fluorobenzyl)oxy)phenyl)-6-(5-((((1-carboxy-2-aminoformyl)ethyl)amino)methyl)-2-furyl)-4-quinazolinamine]
< 10 | < 10 | NC(CCCNCc1ccc(-c2ccc3ncnc(Nc4ccc(OCc5cccc(F)c5)c(Cl)c4)c3c2)o1)C(=O)O (centres unmarked) [MS 32, N-(3-chloro-4-((3-fluorobenzyl)oxy)phenyl)-6-(5-((((4-carboxy-4-amino)butyl)amino)methyl)-2-furyl)-4-quinazolinamine]
 | < 10 | NC(CCCNCc1ccc(-c2ccc3ncnc(Nc4ccc(F)c(Cl)c4)c3c2)o1)C(=O)O (centres unmarked) [MS 37, N-(3-chloro-4-fluorophenyl)-6-(5-((((4-carboxy-4-amino)butyl)amino)methyl)-2-furyl)-4-quinazolinamine]
 | < 10 | NCCCC(NCc1ccc(-c2ccc3ncnc(Nc4ccc(F)c(Cl)c4)c3c2)o1)C(=O)O (centres unmarked) [MS 38, N-(3-chloro-4-fluorophenyl)-6-(5-((((1-carboxy-4-amino)butyl)amino)methyl)-2-furyl)-4-quinazolinamine]
 | < 10 | O=[N+]([O-])c1ccc(CCNCc2ccc(-c3ccc4ncnc(Nc5ccc(F)c(Cl)c5)c4c3)o2)cc1 [MS 40, N-(3-chloro-4-fluorophenyl)-6-(5-(((2-(4-nitrophenyl)ethyl)amino)methyl)-2-furyl)-4-quinazolinamine]
